Data as given in patent US5521159A, “Partially modified and retro-inverted tetrapeptides analogues of C-reactive protein fragments” (Italfarmaco S.p.A., priority 1992, dated 1996).

Experiments:
murine peritoneal cells = assay: Stimulation of the nitric oxide by murine peritoneal cells (chemiluminescence); format: cell-based, BALB/C mice; conditions: with lipopolysaccharide 30 μg/ml, 96 hours; for nitric oxide, Stimulation index: with respect to control; for nitric oxide content: control 20
Protocol: Stimulation of the nitric oxide by murine peritoneal cells
The peritoneal cells were obtained as described in the previous test, and incubated for 96 hours at 37° C. in the presence of the compounds in question and of lipopolysaccharide at a concentration of 30 μg/ml. At the end of the treatment the supernatants were collected and the nitric oxide content was determined by the chemiluminescence test described by Palmer R. M. J. et al, Nature, 327, 524, 1987.

murine splenocytes = assay: Stimulation of in vitro IFN-.tau. production by murine splenocytes (ELISA); format: cell-based, BALB/C mice; conditions: for IFN-.tau. production, Stimulation index / IFN-.tau. production, U/ml: 24 hours; for IFN-.tau. production, Stimulation index: with respect to untreated cells; for IFN-.tau. production, U/ml: control 31 (Ex.1, Ex.2), 41 (Ex.3)
Protocol: Stimulation of in vitro IFN-.tau. production by murine splenocytes
The splenic cells were obtained from spleen of BALB/C mice as single cells suspension. The splenocytes thus obtained were resuspended in RPMI 1640 culture medium (Flow Lab., Hertz, UK) containing 5% of fetal calf serum (FCS) (HyClone, ST, Utah, USA) at a final concentrazione of 10^7 cells/ml, and incubated in 96-well plates for 24 hours at 37° C. in the presence of the tested compounds at the indicated concentration. At the end of the incubation the supernatant was collected, filtered by […] filter and freezed to -80° C. until the time of the test carried out by ELISA commercial kit (Genzyme, Boston, Mass., USA).

Leishmania major = assay: Effect on the leishmanicidal activity of murine peritoneal macrophage (3H-thymidine incorporation); format: cell-based; conditions: for 3H-thymidine incorporation by living parasites, cpm (counts per minute): 24 hours pre-incubation of macrophages, control 18,273; for % reduciton of infection: versus control
Protocol: Effect on the leishmanicidal activity of murine peritoneal macrophage
The peritoneal cells collected as described above were seeded in 96-well flat bottom plates (Nunc, Roskiled, DK) at a concentration of 10^5 /100 μl; and incubated per 24 hours at 37° C. At the end of the treatment, the cells not adherent to the well were separated and discharged, whereas the adherent cells were washed three time with culture medium and incubated for 24 hours with the compounds in question, then the cells were infected through a 24 hours incubation with promastigotes of Leishmania major (L. major, PVL49 strain supplied by Dr. Neal R. A., London School of Hygiene and Tropical Medicine, London, UK). At the end of the infection treatment each well was added with 100 μl of a 0.01% solution od sodium dodecylsulphate in RPMI 1640, and the plates were incubated for 30 minutes at 37° C. The Schneider's culture medium (Schneider Drosophila medium, Gibco Lab., Grand island, N.Y., USA) with 30% of FCS was added. Each well was added with 1 μCi of ^3 H-thymidine, and a 72 hours incubation was carried out at 37° C. The incorporation of radioactivity by the living parasites inside the peritoneal cells, which is correlated to the infection degree and consequently to the leishmanicidal activity of the cells, was measured by collecting the cells by means of a cell-harvester and measuring the radioactivity with liquid scintillation β-counter.

[1] = tested on: BALB/C mice inoculated with LPS; assay: In vivo protection against septic shock (LPS-inoculated mice); conditions: LPS 50 mg/kg intraperitoneally, checked for 8 days
Protocol: Evaluation of the in vivo protection against septic shock
BALB/C mice (6 mice/group) weighting between 20 and 25 g, were intraperitoneally inoculated with 50 mg/kg of LPS (lipopolysaccharide-Sigma). The groups, except for the control, were inoculated with increasing doses of one of the compounds of the invention dissolved in physiologic solution having a final volume of 0.5 ml, at time 0 (i.e. together with LPS) or 30 minutes after the LPS inoculation. The mice were checked for 8 days to determined the survival percentage. Compound of Example 1 yields a survival percentage of about 65% at doses of 6.2 ug/mouse and 0.62 ug/mouse, and its isomer B yields a survival percentage of about 80% at a dose of 6.25 ug/mouse and of 75% at a dose of 62.5 ug/mouse.

[2] = tested on: murine peritoneal macrophages; assay: Stimulation of IL-1 production by murine peritoneal macrophages (ELISA); format: cell-based, BALB/C mice; conditions: 96 hours; for IL-1 production, Stimulation index: with respect to control; for IL-1 production, U/ml: control 15
Description: Stimulation of IL-1 production by murine peritoneal macrophages
Murine peritoneal macrophages were obtained by inoculation of a solution of hydrolized starch (BDH Chemicals, Poole, Dorset, UK) into the peritoneal cavity of BALB/C. mice, three days before sacrificing the animals. The peritoneal cells were then collected by washing the peritoneal cavity with a solution of RPMI 1640 containing 10% of FCS, and resuspended in the same solution at a concetration of 10^6 cells/ml in 96-well plates. The incubation was performed for 96 hours at 37° C. in the presence of the compounds in question. At the end of the treatment the supernatants were collected and used for dosing cytokine by means of a suitable ELISA commerical kit (Genzyme, Boston, Mass., USA).

| Compound | nitric oxide, Stimulation index (murine peritoneal cells; 0.01 μg/ml) | nitric oxide content (murine peritoneal cells; 0.01 μg/ml) | nitric oxide, Stimulation index (murine peritoneal cells; 0.1 μg/ml) | nitric oxide content (murine peritoneal cells; 0.1 μg/ml) | nitric oxide, Stimulation index (murine peritoneal cells; 1.0 μg/ml) | nitric oxide content (murine peritoneal cells; 1.0 μg/ml) | nitric oxide, Stimulation index (murine peritoneal cells; 10.0 μg/ml) | nitric oxide content (murine peritoneal cells; 10.0 μg/ml) | IFN-.tau. production, Stimulation index (murine splenocytes; 0.1 μg/ml) | IFN-.tau. production, U/ml (murine splenocytes; 0.1 μg/ml) | IFN-.tau. production, Stimulation index (murine splenocytes; 1.0 μg/ml) | IFN-.tau. production, U/ml (murine splenocytes; 1.0 μg/ml) | IFN-.tau. production, Stimulation index (murine splenocytes; 10.0 μg/ml) | IFN-.tau. production, U/ml (murine splenocytes; 10.0 μg/ml) | 3H-thymidine incorporation by living parasites, cpm (counts per minute) (Leishmania major; 0.1 μg/ml) | % reduciton of infection (Leishmania major; 0.1 μg/ml) | 3H-thymidine incorporation by living parasites, cpm (counts per minute) (Leishmania major; 1.0 μg/ml) | % reduciton of infection (Leishmania major; 1.0 μg/ml) | 3H-thymidine incorporation by living parasites, cpm (counts per minute) (Leishmania major; 10.0 μg/ml) | % reduciton of infection (Leishmania major; 10.0 μg/ml) | other results |
| --- | --- | --- | --- | --- | --- | --- | --- | --- | --- | --- | --- | --- | --- | --- | --- | --- | --- | --- | --- | --- | --- |
| N=C(N)NCCC[C@H](NC(=O)[C@@H]1CCCN1C(=O)C(CCCCN)C(=O)NCN)C(=O)O (single isomer, unassigned) [Ex.1] | 2.2 | 43 nmol/mL | 3.0 | 59 nmol/mL | 3.9 | 77 nmol/mL | 2.9 | 57 nmol/mL | 1.1 | 33 U/ml | 1.9 | 60 U/ml | 1.6 | 49 U/ml | 5,096 cpm | over 70% | 3,783 cpm | 79% | 4,292 cpm | 77% | IFN-.tau. production, Stimulation index (murine splenocytes; 1.0 μg/ml, listed as example 1): doubled; stimulation of IFN-.tau. production, result in words (murine splenocytes; 0.1 to 10.0 μg/ml): the most powerful one of the present class; % reduciton of infection (Leishmania major; 0.1 μg/ml, listed as Es. 1): 72%; reduction of the infection degree, result in words (Leishmania major; 0.1 to 10.0 μg/ml): the utmost effective; survival percentage ([1]; 0.62 ug/mouse): about 65%; survival percentage ([1]; 6.2 ug/mouse): about 65%; IL-1 production, Stimulation index ([2]; 0.01 μg/ml): 0.4; IL-1 production, U/ml ([2]; 0.01 μg/ml): 6 U/ml; IL-1 production, Stimulation index ([2]; 0.1 μg/ml): 0.1; IL-1 production, U/ml ([2]; 0.1 μg/ml): 2 U/ml; IL-1 production, Stimulation index ([2]; 1.0 μg/ml): 0.1; IL-1 production, U/ml ([2]; 1.0 μg/ml): 2 U/ml; IL-1 production, Stimulation index ([2]; 10.0 μg/ml): 0.1; IL-1 production, U/ml ([2]; 10.0 μg/ml): 2 U/ml |
| N=C(N)NCCC[C@H](NC(=O)[C@@H]1CCCN1C(=O)C(CCCCN)C(=O)NCN)C(=O)O (single isomer, unassigned) [isomer B] | – | – | – | – | – | – | – | – | – | – | – | – | – | – | – | – | – | – | – | – | survival percentage ([1]; 6.25 ug/mouse): about 80%; survival percentage ([1]; 62.5 ug/mouse): 75% |
| H-gThr-R,S)mLys-Pro-LeU-OH.AcOH [Ex.2] | 4.3 | 85 nmol/mL | 3.1 | 61 nmol/mL | 3.3 | 66 nmol/mL | 4.0 | 79 nmol/mL | 1.8 | 57 U/ml | 1.7 | 52 U/ml | 1.9 | 60 U/ml | 17,568 cpm | 4% | 11,991 cpm | 34% | 10,582 cpm | 42% | IL-1 production, Stimulation index ([2]; 0.01 μg/ml): 6.0; IL-1 production, U/ml ([2]; 0.01 μg/ml): 90 U/ml; IL-1 production, Stimulation index ([2]; 0.1 μg/ml): 4.0; IL-1 production, U/ml ([2]; 0.1 μg/ml): 60 U/ml; IL-1 production, Stimulation index ([2]; 1.0 μg/ml): 3.1; IL-1 production, U/ml ([2]; 1.0 μg/ml): 47 U/ml; IL-1 production, Stimulation index ([2]; 10.0 μg/ml): 3.3; IL-1 production, U/ml ([2]; 10.0 μg/ml): 50 U/ml |
| H-gThr-(R,S)mLys-Pro-Gln-OH.AcOH [Ex.3] | 2.5 | 50 nmol/mL | 3.0 | 60 nmol/mL | 3.3 | 66 nmol/mL | 4.4 | 88 nmol/mL | 1.5 | 60 U/ml | 1.5 | 60 U/ml | 1.7 | 68 U/ml | 18,826 cpm | -3% | 8,377 cpm | 54% | 7,842 cpm | 57% | IL-1 production, Stimulation index ([2]; 0.01 μg/ml): 10.0; IL-1 production, U/ml ([2]; 0.01 μg/ml): 150 U/ml; IL-1 production, Stimulation index ([2]; 0.1 μg/ml): 10.7; IL-1 production, U/ml ([2]; 0.1 μg/ml): 160 U/ml; IL-1 production, Stimulation index ([2]; 1.0 μg/ml): 10.3; IL-1 production, U/ml ([2]; 1.0 μg/ml): 155 U/ml; IL-1 production, Stimulation index ([2]; 10.0 μg/ml): 9.3; IL-1 production, U/ml ([2]; 10.0 μg/ml): 140 U/ml |
